US20220380430A1, “Non-Transgenic Functional Rescue of Neuropeptides” (Worcester Polytechnic Institute, priority 2021, published 2022)

Columns and labels:
C. elegans = assay: Single worm attraction assay (SWAA) of ascarosides; format: in vivo; conditions: males; in words
Procedure: The spot retention assay was adapted to allow for better characterization of individual worm behavior and robust interrogation of attraction to small molecules. The attractiveness of 1 μM ascr #8 (FIG. 11A) were compared across multiple strains of C. elegans (the wild-type N2 strain, the high incidence of male him-5 and him-8 strains, and the chemosensory cilia defective osm-3), using the novel behavioral assay, the single worm attraction assay (SWAA) (FIG. 11A). In this assay, individual animals were placed directly into the spot of the ascaroside cue (A) while simultaneously removing any potential of male-male contact. […] Likewise, a vehicle control (V) is also included, to account of any changes in dwell time that are driven by the components of the vehicle. The outer forty wells of a 48-well suspension culture plate (Olympus Plastics, Cat #: 25-103) were seeded with 200 μL of standard NGM agar. To prepare the plates for the assay, they were acclimated to room temperature, at which point each well was seeded with 65 μL of OP50 E. coli. The assay plates were then transferred to a 37° C. incubator with the lid tilted for 4 h to allow the bacterial culture to dry on the agar. Once the bacterial culture dried, the lid was replaced the plate was stored at 20° C. until used in the assay. Fifty to sixty L4 worms were segregated by sex and stored at 20° C. for 5 h to overnight to be assayed as young adults. 0.8 μL of either vehicle control or ascaroside #8 was placed in the center of the well corresponding to that condition within the quadrant being tested, following a random block design (FIG. 11A). A single worm was placed in each of the 10 wells to be assayed, and the plate was transferred to a light source and camera and recorded for 15 m. […] Raw dwell time values were calculated by subtracting the time a worm exited the cue (center of the well in spatial controls), from the time it entered, as in the SRA. This was determined per visit, and the average dwell time was calculated for each animal in the quadrant. Averages of the four-quadrant means were determined per plate, and a minimum of five plates were assayed per strain/condition. The mean raw dwell time across five plates was calculated and used for statistical analyses and graphical display. […] An “attractive visit” was first determined for each plate as any visit greater than two standard deviations above the mean dwell time within the vehicle control for that plate. Any individual visit meeting this threshold was scored as a “1”, and any below was scored a “0”. The percent visits per-worm that were attractive was determined, and the average of each quadrant taken. […] The average percent of attractive visits across five plates was calculated and used for statistical analyses and graphical display.

trh-1 mutant worms = assay: Size comparison (body volume) after rescue-by-feeding; format: in vivo, C. elegans; conditions: for restoration of body volume: trh-1 lof animals fed E. coli expressing peptide, in words; for Relative Body Volume: trh-1 mutant animals fed peptide, N2 set as 100%
Procedure: All animals were maintained on bacterial lawns of OP50 E. coli, at 20° C., on NGM agar plates until the start of experiments. Mutant or control animals were transferred onto lawns of DH5α E. coli expressing either scramble peptide or the rescue peptide-of-interest on NGM plates containing […] AMP and 1 mM IPTG. Animals were reared on the peptide-expressing lawns for at least 48 hours at 20° C. before assaying for rescue of mutant phenotype at the appropriate developmental stage.
The body morphology different of trh-1 mutants was compared to wild-type worms by body volume measurements. Wild-type (N2) and trh-1 animals were synchronized by embryonic starvation following alkaline hypochlorite protocols. Ten gravid hermaphrodites from OP50 E. coli plates were picked into 30 μL drops of alkaline hypochlorite solution (20% sodium hypochlorite, 500 mM KOH). Two drops were placed on either side of an unseeded NGM plate, resulting in 20 animals per plate. Plates were then incubated for 24 hours at 20° C. before L1 larval animals washed with 1 mL M9 (22 mM KH2PO4, 42.25 mM Na2HPO4, 85.5 mM NaCl, 1 mM MgSO4) per unseeded NGM plate. Allow L1 worms to settle into pellet before removing M9 supernatant. Repeat washing step 2 more times. Plate worm pellet onto NGM with […] AMP and 1 mM IPTG plates containing 75 μL peptide lawns.
After at 48 hours at 20° C., animals were recorded using a Basler acA2500-14 uM camera using WormLab software (WormLab 4.1; MBF Bioscience, 2017) for 65 seconds. Worm length, width, and area were calculated within the WormLab software (FIG. 5C-FIG. 5H). As the WormLab worm width metric is an average of cross-sections throughout the length of each worm, this was used to calculate the volume of a worm as a cylinder, with the Volume=π*(0.5*width)^2*length (FIG. 2A-FIG. 2B, FIG. 5A-FIG. 5B).
Two to four plates were recorded per day for at least three days to generate data sets. Control plates of N2 and trh-1 animals raised on the scramble peptide were grown alongside every rescue feeding. Each “worm track” was considered an n=1. Tracks were excluded if (1) worm tracks less than 10 seconds, or (2) worms were further than two standard deviations from the mean metric. Following tests for normality, comparisons were made using either Mann-Whitney tests for direct comparisons between N2 and trh-1 animals reared on OP50, or Kruskal-Wallis non-parametric ANOVAs and Dunn's multiple comparisons tests for animals raised on peptide feeding strains. Comparisons were made for metrics: length (FIG. 5C-FIG. 5D), width (FIG. 5e-FIG. 5F), area (FIG. 5G-FIG. 5H), and volume (FIG. 2A-FIG. 2B, FIG. 5A-FIG. 5B).

Row | Molecule | male attraction in the SWAA (C. elegans) | restoration of body volume (trh-1 mutant worms) | Relative Body Volume (trh-1 mutant worms) [%]
1 | C[C@H](CCCC/C=C/C(=O)O)O[C@@H]1O[C@@H](C)[C@H](O)C[C@H]1O [ascr #3] | maintains its ability to attract males in the SWAA | – | –
2 | ANELF-NH2 [TRH-1B] | – | complete restoration of wild-type body volume | ~100
3 | GRELF-NH2 [TRH-1A] | – | complete restoration of wild-type body volume | ~100
